We go through 89 compounds from a melting point compilation (Tetko et al.; mined from patent text by program, amines drawn as free bases though some values may be those of a salt).

What is called melting point is the temperature, or range, at which the solid turns liquid.

The compound `CCOC=C1C(=S)c2cc(C)ccc2OC1c1ccccc1` (centres undefined) returned a melting point of 140 to 142 °C.
As to `Cc1nc2c(-c3cccc(N4CCC(N5CCCC5)CC4)c3)cnn2c(N)c1-c1cccc(Cl)c1`, the melting point lay in the range of 188 to 193 °C.
`CC1(C)OC(=O)Nc2ccc(/C(=C/C#N)c3ccccc3)cc21` came in with a melting point of 205 to 206 °C.
Consider `CN1CCN(C(=O)c2ccc([N+](=O)[O-])cc2)CC1`, for which the melting point was in the range of 100 to 101 °C.
The compound `Cc1ccccc1C(=O)Nc1ccc(C(=O)N2CCc3cn(C)nc3-c3ccccc32)cc1` yielded a melting point of 246 to 248 °C.
The compound `CC(C#N)(c1ccccc1)c1cccnn1` (centres undefined) came in with a melting point of 114 to 115 °C.
Regarding `O=[N+]([O-])c1ccc(NN=C(c2ccccc2)c2ccc(O)cc2)c([N+](=O)[O-])c1`, the melting point lay within 224 to 225 °C.
`NC(N)=Nc1nc(-c2cccc(N)n2)cs1` showed a melting point of 242 °C.
In turn, `[N-]=[N+]=Nc1ccc(C(=O)OCCOC(=O)CC[C@@H](C(=O)O)n2c3ccccc3c3ccccc32)cc1` returned a melting point of 70 °C.
To `COc1ccc(C(C#N)CNC(N)=O)cc1OC1CCCC1` (centres undefined) belongs 55 to 61 °C; to `O=C(NC(c1ccccc1)C(O)c1ccccc1)OCc1ccccc1` (centres undefined), 152 °C.
`COc1ccc2c(c1)CCNC2=O`: the melting point lay within 128 to 130 °C.
To `OCc1nnc2n1-c1sc(Cl)cc1C(c1ccccc1Cl)=NC2` belongs 219 to 221 °C; to `Cc1nc(-c2nccs2)c2nc(-c3ccccc3)cc-2[nH]1`, 248 to 250 °C; to `CCOC(=O)COc1cc2c(c(Cl)c1Cl)C(=O)C(CC#C[Si](C)(C)C)(c1ccc(Cl)cc1)C2` (centres undefined), 103 to 104 °C.
`Cc1ccc(C(=O)c2ccc(CC#N)n2C)c(Cl)c1` registered a melting point of 116 to 118 °C.
To `C1COCCOCCNCCOCC2(COCCN1)COC2` belongs 147 to 150 °C; to `COC(=O)C(C)=Cc1cc(NC(=S)N2CCCCN2)ccc1Cl`, 120 to 121 °C.
For `COCC(C)N(Cc1ccc(OC)c(OC)c1)C(=O)C(Cl)Cl` (centres undefined) the value was 75 to 76 °C; for `CC(C)(C)NC(=O)NOCC(O)CN1CCCCC1` (centres undefined), 71 to 73 °C.
Regarding `CC=CCNc1cc(C(=O)O)cc(S(N)(=O)=O)c1-c1ccccc1`, the melting point lay within 186 to 187 °C.
In the case of `Clc1ccn2cc(Cl)nc2c1`, the melting point is 153 to 154 °C.
For `CCC(CC(=O)NC(=O)OC(C)(C)C)Nc1ccc(C)cc1` (centres undefined) the value was 96 to 97 °C; for `COc1cc2[nH]c(N(C)Cc3cccc(Oc4ncccn4)c3)nc(=O)c2c(C)c1OC`, 224 to 228 °C; for `COc1ccc(C2=NN(c3nc(C)ccc3C(F)(F)F)C(=O)C3CC=CCC23)cc1Cl` (centres undefined), 156 to 157 °C.
For `O=C(CNc1c(C(=O)O)[nH]c2cc(Cl)cc(Cl)c12)c1ccc(F)cc1`, the melting point is 259 to 261 °C.
To `CC(C)Cc1nc2ccc(C(c3cccc(Cl)c3)n3ccnc3)cc2[nH]c1=O` (centres undefined) belongs 215 °C; to `CC(=O)OCC(C)C1CCC2C3CC=C4CC(OC5CCCCO5)CC(OC5CCCCO5)C4(C)C3CCC12C` (centres undefined), 155 to 161 °C; to `CCCC[C@H]1C(=O)CC[C@@]2(C)CC[C@@H]3C[C@]12OC3(C)C`, 64 to 66 °C.
As to `O=C(O)C1=Cc2cc(Cl)c(S(=O)c3ccc(Cl)cc3)cc2OC1C(F)(F)F` (centres undefined), the melting point was 214 to 217 °C.
In turn, `O=C(O)c1cn2c3c(c(N4CCN(Cc5ccccc5)CC4)ccc3c1=O)CCC2` gave a melting point of 274 to 278 °C.
To `CCN(C(=O)N1CCN(c2cc(Cl)cc(Cl)c2)CC1)c1nc2ccccc2nc1OC` belongs 146 to 148 °C; to `COc1c(F)c(F)c(C(=O)C=C2OC(=O)c3ccccc32)c(F)c1F`, 199 to 200 °C.
Compound `CC(=O)C(=NNc1ccccc1)C(N)=O` gave a melting point of 146 to 147 °C.
`NCc1ccc(C2CCN(c3cc4c(cc3F)c(=O)c(C(=O)O)cn4C3CC3)C2)cc1` (centres undefined) came in with a melting point of 268 to 272 °C.
To `CS(=O)(=O)c1ccc(N2C[C@H](COc3ccon3)OC2=O)cc1` belongs 180 °C.
To `CC1CC2(C)C(O)CCC2C2C(C)CC3=CC(=O)CCC3C12` (centres undefined) belongs 155 to 157 °C.
For `CCCN1N=C(c2ccc(F)cc2)c2cc(Cl)ccc2CS1(=O)=O` the value was 122 °C; for `Cc1cc(CN2CCN(c3ccc(C(=O)NC4CC4)cc3)CC2)cc2c1OC(C)C(=O)N2` (centres undefined), 257 to 263 °C; for `NC(=O)c1cc2c(OCCCN3CCN(c4cc(N5CCCC5)nc(N5CCCC5)n4)CC3)cccc2[nH]1`, 151 to 152 °C.
`COC(=O)c1ccc(C(c2ccccc2)(c2ccccc2)c2ccccc2)cn1` displayed a melting point of 160 to 164 °C.
For `CN(C(=O)c1cccc(Cn2cnc3ccccc32)c1)C1CCCCC1` the value was 99 to 101 °C; for `CCCCCCCCCCCCOc1ccc(C(=O)c2ccccc2)cc1`, 63 to 64 °C; for `[N-]=[N+]=NC1CC(n2ccc(N)nc2=O)OC1CO` (centres undefined), 174 to 176 °C.
Consider `O=C1OC(c2cccc3ccccc23)=NC1=Cc1ccccc1`, for which the melting point is 134 to 137 °C.
For `COCCNC(=O)c1c(O)c2cnc(-c3ccccc3)nc2n(CCOC)c1=O` the value was 150 to 154 °C.
To `CCOC(=O)c1cn(-c2cc(NC(=O)OC(C)(C)C)c(F)cc2F)c2c(Cl)c(N)c(F)cc2c1=O` belongs 143 to 150 °C; to `CC(C)c1nsc2ccc(-n3c(=O)cc(C(F)(F)F)n(C)c3=O)cc12`, 139 to 140 °C; to `CCN(CC)CCOc1ccc(Nc2ncc3ccc(=O)n(C(C)C)c3n2)cc1`, 84 to 85 °C.
For `O=c1[nH]c2ccc(Cl)cc2c(=O)n1S(=O)(=O)c1ccc(Cl)cc1` the value was 223 to 225 °C; for `CCCCN(CCCC)S(=O)(=O)c1cc(C(=O)O)ccc1Cl`, 93 to 96 °C.
`CSc1cc(C)nc(SC)c1NC(=O)CCCSc1nc2ccccc2o1` returned a melting point of 149 to 150 °C.
`O=C(O)c1ccc(OCCNC(=O)c2ccc(Cl)cc2)cc1` displayed a melting point of 219 to 220 °C.
In the case of `COC(=O)c1ccc(Cl)c(C(=O)NOCc2ccc(Cl)cc2)c1Cl`, the melting point lay in the range of 120 to 121 °C.
For `O=C(O)Cc1ccc2oc3ncccc3c(=O)c2c1` the value was 244 to 245 °C; for `O=C1OCCN1N=C1CCOc2ccc([N+](=O)[O-])cc21`, 168 to 170 °C.
As to `NOCc1cn(C(c2ccccc2)(c2ccccc2)c2ccccc2)cn1`, the melting point lay in the range of 138 to 139 °C.
On to `O=C1Nc2cc(Br)ccc2N2CCc3cccc1c32`, for which the melting point was in the range of 255 to 257 °C.
In turn, `CC1(C)SC(=O)N(Cc2ccccc2[N+](=O)[O-])C1=O` yielded a melting point of 72.3 to 73.2 °C.
To `CCOC(Cc1ccc(OCc2nc(C3CC3)oc2C)c2ccccc12)C(=O)O` (centres undefined) belongs 166 to 168 °C.
To `CC(=O)SC[C@H]1CCCCCC[C@H](C(=O)O)NC1=O` (relative stereo) belongs 144 to 145 °C.
In the case of `COc1cc(C(=O)c2cnc3ccccc3c2)ccc1O`, the melting point lay in the range of 196 to 197 °C.
`Clc1nc2cc3c(cc2s1)OCO3`: the melting point was in the range of 131 to 132 °C.
To `CS(=O)(=O)c1ccc(-c2cnn(-c3ccc(F)c(F)c3)c(=O)c2Cc2cccc(F)c2)cc1` belongs 161 to 163 °C; to `CC(=O)Nc1ccc(-c2ccc3nnn(Cc4ccc5ncccc5c4)c3n2)cc1`, 220 to 223 °C.
To `NC(=O)N1CCCN(NC(=O)OCc2ccccc2)C1=O` belongs 136 °C.
`Cc1nc(-c2ccccc2)nc(-c2ccncc2)c1CO`: the melting point lay within 175 to 176 °C.
To `COc1ccc2c(c1)cc(CO)n2C` belongs 158 °C; to `CCCCCCCCCCCCCCCCCC(=O)n1cc(F)c(=O)n(C(=O)c2ccccc2)c1=O`, 85 °C.
For `O=C(NCc1ccccc1Cl)c1cccnc1Oc1cccnc1` the value was 174 to 176 °C.
For `O=C(N[C@H](Cc1ccccc1)C(=O)O)OCc1ccc2oc(-c3ccccc3)nc2c1` the value was 220 to 221 °C; for `CC(C)(C)OC(=O)NCC(Cl)c1ccsc1` (centres undefined), 63 to 65 °C.
In turn, `CCCCCC(CC(=O)Nc1cc(C(=O)O)ccc1C(C)(C)C)c1cccc(OC)c1OC` (centres undefined) came in with a melting point of 146 to 147 °C.
For `CCOC(=O)C1=C(C)NC(C)=C(C(=O)OCC)C1c1ccccc1F` the value was 151 to 152 °C.
To `CCOC(=O)c1cc(-c2csc(-c3cccnc3)n2)[nH]n1` belongs 105 to 107 °C; to `CC(=O)c1ccc(C=Cc2ccc(C(C)=O)s2)s1`, 248 °C; to `CCOC(=O)/C=C1\C[C@@H]2c3cccc4[nH]cc(c34)C[C@H]2N(C)C1`, 170 to 171 °C.
To `O=C(Cc1cccnc1)N1CCC(C2=c3ccc(Cl)cc3=CCc3c(Cl)ccnc32)CC1` belongs 100 to 103 °C; to `CC(=O)NC[C@H]1CN(c2ccc(N3C=CS(=O)(=O)CC3)c(F)c2)C(=O)O1`, 193 to 194 °C.
`COC(=O)c1cccc(-c2cc(-c3ccccc3)on2)c1` showed a melting point of 99 to 100 °C.
As to `Nc1cccc(C(=O)Nn2cnnn2)c1`, the melting point turned out to be 281 °C.
As for `Nc1ccc(Oc2c(NCc3ccco3)cc(C(=O)O)cc2S(N)(=O)=O)cc1`, the melting point fell in the range of 233 to 235 °C.
To `CCCCCCCCCCCCCCCCCCCNC(=O)C1CSC(c2cccnc2)N1` (centres undefined) belongs 108 to 110 °C; to `CCOC(=O)Cc1ccc(-c2ccc3oc(C(=O)OCC)c(C)c3c2)cc1`, 110 to 112 °C.
For `COc1cc(OC)c2c(=O)[nH]c(-c3ccc4[nH]c(CCN5CCCC5)cc4c3)nc2c1` the value was 215 to 217 °C; for `COC(=O)C=Cc1cccc2c3c(n(C)c12)CCN(Cc1nc[nH]c1C)C3=O`, 175 to 178 °C; for `CC(C)c1cc2c(c(O)c1-c1ccc3c(c1)CCCC3)CCCC2`, 110 °C.
For `C=CC(C)n1ncc(-c2ccc(S(C)(=O)=O)cc2)c(-c2ccc(F)cc2)c1=O` (centres undefined) the value was 140 to 142 °C.
For `CC1(c2ccc(OCc3ccccc3[Si](C)(C)C)cc2)OC(=O)N(Nc2ccccc2)C1=O` (centres undefined), the melting point was 112 to 114 °C.
